From article PMC3914206

What was measured:
Assay type in all cases: binding
Conditions in all cases: Compound Concentration 10 µM
panel of 442 kinases [1] = molecular target: T1, panel of 442 kinases (Homo sapiens, UniProt P10721, V559D)
T1 construct: purchased KINOMEscan
Source text: (§1) We assessed the selectivity of members of this scaffold using the KINOMEscan methodology across a near comprehensive panel of 442 kinases [[18,27]].

panel of 442 kinases [2] = molecular target: T2, panel of 442 kinases (Homo sapiens, UniProt P17948)
T2 construct: purchased KINOMEscan
Source text: as §1

panel of 442 kinases [3] = molecular target: T3, panel of 442 kinases (Homo sapiens, UniProt Q32MK0)
T3 construct: purchased KINOMEscan
T3 sequence (Q32MK0 1-819): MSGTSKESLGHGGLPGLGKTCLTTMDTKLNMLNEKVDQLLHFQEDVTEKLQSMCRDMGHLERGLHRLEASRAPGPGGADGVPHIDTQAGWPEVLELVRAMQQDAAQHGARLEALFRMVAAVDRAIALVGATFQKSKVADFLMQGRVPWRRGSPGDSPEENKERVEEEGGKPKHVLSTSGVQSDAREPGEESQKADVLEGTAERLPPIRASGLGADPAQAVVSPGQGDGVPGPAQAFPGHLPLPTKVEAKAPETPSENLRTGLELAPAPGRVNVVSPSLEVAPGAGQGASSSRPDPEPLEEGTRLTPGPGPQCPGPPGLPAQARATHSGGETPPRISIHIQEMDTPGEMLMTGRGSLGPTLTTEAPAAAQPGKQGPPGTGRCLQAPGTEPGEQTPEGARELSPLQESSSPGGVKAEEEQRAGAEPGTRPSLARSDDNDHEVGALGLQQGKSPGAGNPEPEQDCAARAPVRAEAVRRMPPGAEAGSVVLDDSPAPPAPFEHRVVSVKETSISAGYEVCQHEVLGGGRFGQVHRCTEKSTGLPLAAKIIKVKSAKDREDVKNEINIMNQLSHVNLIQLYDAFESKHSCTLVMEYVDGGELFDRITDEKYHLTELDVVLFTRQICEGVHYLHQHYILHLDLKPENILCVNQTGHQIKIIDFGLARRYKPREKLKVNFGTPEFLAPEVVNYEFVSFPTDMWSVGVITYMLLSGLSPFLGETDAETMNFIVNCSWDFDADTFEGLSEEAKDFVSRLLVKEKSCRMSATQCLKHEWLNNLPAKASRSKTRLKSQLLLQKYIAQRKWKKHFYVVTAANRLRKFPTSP
Source text: as §1

T1 sequence (P10721 26-976 V559D): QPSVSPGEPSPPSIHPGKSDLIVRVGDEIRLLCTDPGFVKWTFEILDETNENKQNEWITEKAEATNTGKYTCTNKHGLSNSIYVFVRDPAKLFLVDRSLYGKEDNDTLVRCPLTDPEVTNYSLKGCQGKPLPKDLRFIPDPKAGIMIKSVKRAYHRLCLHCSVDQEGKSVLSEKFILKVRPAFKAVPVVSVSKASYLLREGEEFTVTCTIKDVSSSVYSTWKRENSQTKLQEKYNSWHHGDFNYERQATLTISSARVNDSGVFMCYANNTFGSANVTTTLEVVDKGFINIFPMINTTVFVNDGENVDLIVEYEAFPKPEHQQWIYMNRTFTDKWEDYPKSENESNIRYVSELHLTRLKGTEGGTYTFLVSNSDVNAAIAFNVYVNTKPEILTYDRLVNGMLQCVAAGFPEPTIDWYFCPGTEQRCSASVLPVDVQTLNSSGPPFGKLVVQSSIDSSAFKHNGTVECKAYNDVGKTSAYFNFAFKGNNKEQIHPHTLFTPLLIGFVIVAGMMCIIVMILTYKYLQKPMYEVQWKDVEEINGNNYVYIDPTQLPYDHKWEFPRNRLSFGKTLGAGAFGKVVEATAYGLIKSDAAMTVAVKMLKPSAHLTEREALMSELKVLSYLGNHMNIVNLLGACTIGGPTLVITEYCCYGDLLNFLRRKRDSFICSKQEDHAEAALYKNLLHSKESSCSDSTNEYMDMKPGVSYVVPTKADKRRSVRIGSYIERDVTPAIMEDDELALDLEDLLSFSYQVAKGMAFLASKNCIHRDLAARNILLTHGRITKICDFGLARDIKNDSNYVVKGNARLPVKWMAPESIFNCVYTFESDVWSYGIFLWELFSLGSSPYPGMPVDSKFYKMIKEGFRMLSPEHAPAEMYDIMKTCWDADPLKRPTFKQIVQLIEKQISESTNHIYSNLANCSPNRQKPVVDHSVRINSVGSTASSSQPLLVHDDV
T2 sequence (P17948 27-1338): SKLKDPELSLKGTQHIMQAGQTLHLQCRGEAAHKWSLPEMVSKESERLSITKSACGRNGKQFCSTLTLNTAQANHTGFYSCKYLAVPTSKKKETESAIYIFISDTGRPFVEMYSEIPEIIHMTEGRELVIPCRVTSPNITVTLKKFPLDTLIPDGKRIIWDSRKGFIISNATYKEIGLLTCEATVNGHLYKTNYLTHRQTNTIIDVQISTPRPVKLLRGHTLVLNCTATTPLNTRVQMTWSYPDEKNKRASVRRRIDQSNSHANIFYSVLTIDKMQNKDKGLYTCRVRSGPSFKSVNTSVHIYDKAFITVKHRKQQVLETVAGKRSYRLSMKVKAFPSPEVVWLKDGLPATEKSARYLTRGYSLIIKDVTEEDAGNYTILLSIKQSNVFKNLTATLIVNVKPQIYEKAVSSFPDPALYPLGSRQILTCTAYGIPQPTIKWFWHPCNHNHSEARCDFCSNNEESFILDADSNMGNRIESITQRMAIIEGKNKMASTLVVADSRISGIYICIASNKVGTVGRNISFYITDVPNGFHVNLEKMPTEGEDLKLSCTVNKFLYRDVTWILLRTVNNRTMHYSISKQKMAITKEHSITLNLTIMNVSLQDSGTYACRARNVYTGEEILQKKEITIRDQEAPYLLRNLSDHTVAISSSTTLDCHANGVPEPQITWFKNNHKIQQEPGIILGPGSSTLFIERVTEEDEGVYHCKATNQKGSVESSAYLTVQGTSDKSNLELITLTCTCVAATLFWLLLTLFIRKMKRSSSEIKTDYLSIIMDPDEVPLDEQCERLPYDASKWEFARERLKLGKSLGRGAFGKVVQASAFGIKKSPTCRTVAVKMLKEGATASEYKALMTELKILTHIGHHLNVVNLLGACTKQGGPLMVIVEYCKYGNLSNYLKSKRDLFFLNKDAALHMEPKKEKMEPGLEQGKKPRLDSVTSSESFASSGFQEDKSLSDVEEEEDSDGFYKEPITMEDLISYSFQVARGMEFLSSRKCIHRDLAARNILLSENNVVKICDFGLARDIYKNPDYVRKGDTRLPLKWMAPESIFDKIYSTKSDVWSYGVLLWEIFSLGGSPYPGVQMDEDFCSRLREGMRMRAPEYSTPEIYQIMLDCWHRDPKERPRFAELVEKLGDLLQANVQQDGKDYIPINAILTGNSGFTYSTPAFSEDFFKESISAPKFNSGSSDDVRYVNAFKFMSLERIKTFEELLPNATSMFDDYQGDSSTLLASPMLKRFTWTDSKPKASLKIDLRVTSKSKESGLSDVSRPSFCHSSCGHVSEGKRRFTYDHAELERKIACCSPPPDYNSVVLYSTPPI

| SMILES | KINOMEscan: KIT(V559D) (panel of 442 kinases [1]) | KINOMEscan: FLT1 (panel of 442 kinases [2]) | KINOMEscan: MLCK (panel of 442 kinases [3]) |
| --- | --- | --- | --- |
| COc1cc(C(=O)N2CCC(N3CCN(C)CC3)CC2)ccc1Nc1ncc2c(n1)N(C1CCCC1)c1ccccc1C(=O)N2C [Compound 25, 11-cyclopentyl-2-((2-methoxy-4-(4-(4-methylpiperazin-1-yl)piperidine-1-carbonyl)phenyl)amino)-5-methyl-5H-benzo[e]pyrimido[5,4-b][1,4]diazepin-6(11H)-one] | 96 | 100 | 100 |
| CCOc1cc(C(=O)N2CCC(N3CCN(C)CC3)CC2)ccc1Nc1ncc2c(n1)N(C1CCCC1)c1ccccc1C(=O)N2C [Compound 26] | 100 | 100 | 100 |
| COc1cc(C(=O)N2CCC(N3CCN(C)CC3)CC2)ccc1Nc1ncc2c(n1)N(C)c1ccccc1C(=O)N2C [15 (LRRK2-IN-1)] | 100 | 100 | 100 |
